# Assays:
# [1] = tested on: cloned human 5-HT2B receptor; assay: [3H]5-HT radioligand binding, cloned human 5-HT2B receptor; conditions: statement in words only, no value given
# [2] = studies using radiolabelled compound, residues in saliva; type: in vivo
# Experimental: For example, in the treatment of adult humans, dosages of from 0.25 to 30 mg, preferably from 1 to 20 mg, per day may be used. A once a day dosage is normally sufficient, although divided doses may be administered. For treatment of gastrointestinal disorders, a dose range of from 1 to 20 mg, preferably 2.5 to 15 mg per day is suitable.
smiles,measurement,setting,value
"Cc1cc2c(s1)Nc1ccccc1N=C2N1CCN(C)CC1 [2-methyl-4-(4-methyl-1-piperazinyl)-10H-thieno-[2,3-b][1,5]benzodiazepine]",5-HT2B receptor activity,[1],5-HT2B receptor activity
same,residues of radiolabelled compound in saliva,[2],detected in the saliva
